Source: patent US20020026053A1, “Novel 3-(substituted) -2- indolinones compounds and use thereof as inhibitors of protein kinase activity” (priority 1997, published 2002)

Biological target: T1, EGFR (Homo sapiens, UniProt P00533)
T1 construct: endogenous in cells; host or cells: A431 cells (lysate, captured with SUMO1 anti-EGFR antibody)
Assay: Biochemical EGFR Assay
Design: concentration or dose not given beside the values
Details: protocol P.167
In short: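 Readout is ABTS absorbance at 410 nm after anti-phosphotyrosine and HRP-antibody detection of EGFR autophosphorylation. The kinase was immunocaptured from A431 lysate, exposed 30 min to test compound diluted 1:10 in TBS, then phosphorylated for 5 min with ATP/MnCl2 before an EDTA stop.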

T1 sequence (P00533 25-1210): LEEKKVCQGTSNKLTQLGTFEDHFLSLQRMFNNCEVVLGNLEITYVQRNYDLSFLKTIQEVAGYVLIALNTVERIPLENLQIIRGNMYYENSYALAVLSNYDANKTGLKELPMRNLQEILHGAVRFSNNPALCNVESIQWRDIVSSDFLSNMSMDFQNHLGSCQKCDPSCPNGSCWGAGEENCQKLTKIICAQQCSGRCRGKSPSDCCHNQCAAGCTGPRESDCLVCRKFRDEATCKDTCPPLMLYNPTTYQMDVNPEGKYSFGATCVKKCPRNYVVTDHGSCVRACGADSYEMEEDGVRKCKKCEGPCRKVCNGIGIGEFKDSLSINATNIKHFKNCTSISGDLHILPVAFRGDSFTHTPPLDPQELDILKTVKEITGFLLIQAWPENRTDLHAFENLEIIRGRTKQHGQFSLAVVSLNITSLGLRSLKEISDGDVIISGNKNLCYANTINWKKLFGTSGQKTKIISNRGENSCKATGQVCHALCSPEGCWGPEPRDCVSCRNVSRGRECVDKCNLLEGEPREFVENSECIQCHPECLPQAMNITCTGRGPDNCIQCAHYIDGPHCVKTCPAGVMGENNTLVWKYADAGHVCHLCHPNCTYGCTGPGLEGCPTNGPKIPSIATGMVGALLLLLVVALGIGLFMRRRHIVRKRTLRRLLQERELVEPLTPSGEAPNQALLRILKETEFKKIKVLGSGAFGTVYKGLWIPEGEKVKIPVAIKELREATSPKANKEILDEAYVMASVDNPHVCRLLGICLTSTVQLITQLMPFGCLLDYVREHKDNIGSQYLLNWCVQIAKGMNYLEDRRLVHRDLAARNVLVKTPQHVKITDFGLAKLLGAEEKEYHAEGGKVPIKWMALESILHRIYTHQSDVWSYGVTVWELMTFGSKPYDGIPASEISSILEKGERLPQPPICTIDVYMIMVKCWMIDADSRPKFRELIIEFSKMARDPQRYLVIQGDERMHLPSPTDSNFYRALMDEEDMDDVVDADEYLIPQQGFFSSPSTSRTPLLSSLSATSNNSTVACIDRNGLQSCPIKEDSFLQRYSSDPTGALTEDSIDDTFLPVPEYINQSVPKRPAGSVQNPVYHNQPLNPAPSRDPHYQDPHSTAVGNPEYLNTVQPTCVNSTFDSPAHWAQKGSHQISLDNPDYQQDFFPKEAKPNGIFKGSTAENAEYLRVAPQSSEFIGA

In order of rising “Biochem EGFR % Inhibition (P.167)” value:
1. COc1ccc(C=C2C(=O)Nc3ccc(CCCl)cc32)cc1F [10737/G06]  −43.4%
2. O=C1Nc2ccc(CCCl)cc2C1=Cc1cccc(F)c1F [10737/G05]  −41.4%
3. COc1ccc(C=C2C(=O)Nc3c(Br)cc(Br)c(C)c32)cc1F [10737/H06]  −31.0%
4. Cc1ccc(C)c(C=C2C(=O)Nc3ccc(S(=O)(=O)N4CCOCC4)cc32)c1 [10737/F07]  −25.5%
5. Cc1ccc(C)c(C=C2C(=O)Nc3ccc(CCCl)cc32)c1 [10737/G07]  −25.0%
6. O=C1Nc2ccc(S(=O)(=O)N3CCOCC3)cc2C1=Cc1cccc(F)c1F [10737/F05]  −24.0%
7. O=C1Nc2ccc(S(=O)(=O)N3CCOCC3)cc2C1=Cc1cc(F)ccc1F [10737/F04]  −23.3%
8. Cc1ccc(C=C2C(=O)Nc3c(Br)cc(Br)c(C)c32)c(C)c1 [10737/H03]  −22.6%
9. O=C1Nc2ccc(CCCl)cc2C1=Cc1cc(F)ccc1F [10737/G04]  −19.3%
10. Cc1c(Br)cc(Br)c2c1C(=Cc1cc(F)ccc1F)C(=O)N2 [10737/H04]  −17.6%
11. Cc1c(Br)cc(Br)c2c1C(=Cc1cccc(F)c1F)C(=O)N2 [10737/H05]  −17.4%
12. CCOc1ccc(C=C2C(=O)Nc3c(Br)cc(Br)c(C)c32)cc1 [10737/H02]  −17.2%
13. COc1ccc(C=C2C(=O)Nc3ccc(S(=O)(=O)N4CCOCC4)cc32)cc1F [10737/F06]  −13.7%
14. O=C1Nc2ccc(S(=O)(=O)N3CCOCC3)cc2C1=Cc1cccc(Oc2cccc(C(F)(F)F)c2)c1 [10737/F11]  −0.7%
15. Cc1ccc(C=C2C(=O)Nc3ccc(CCCl)cc32)c(C)c1 [10737/G03]  −0.5%
16. O=C1Nc2ccc(CCCl)cc2C1=Cc1cccc(Oc2cccc(C(F)(F)F)c2)c1 [10737/G11]  2.8%
17. CCOc1ccc(C=C2C(=O)Nc3ccc(CCCl)cc32)cc1 [10737/G02]  12.4%
18. CC(C)(C)c1ccc(Oc2cccc(C=C3C(=O)Nc4ccc(S(=O)(=O)N5CCOCC5)cc43)c2)cc1 [10737/F10]  14.6%
19. CC(C)(C)c1ccc(Oc2cccc(C=C3C(=O)Nc4ccc(CCCl)cc43)c2)cc1 [10737/G10]  17.2%
20. O=C1Nc2ccc(S(=O)(=O)N3CCOCC3)cc2C1=Cc1ccc(Oc2ccccc2)cc1 [10737/F09]  23.5%
21. O=C1Nc2ccc(CCCl)cc2C1=Cc1ccc(Oc2ccccc2)cc1 [10737/G09]  23.6%
22. O=C1Nc2ccc(S(=O)(=O)N3CCOCC3)cc2C1=Cc1ccc2ccccc2c1 [10737/F08]  28.3%
23. O=C1Nc2ccc(CCCl)cc2C1=Cc1ccc2ccccc2c1 [10737/G08]  30.8%
